Where two headings read alike, the source gives them in different places.
Key:
[1] = UP0030 phase 1 study: plasma pharmacokinetics of UCB0599 and its metabolites; format: in vivo, human; details: for AUC: read-out: AUC, GeoMean; for Cmax: read-out: C max, GeoMean
Method: Statistical evaluations for all three studies were performed using SAS version 9.4 (SAS, Cary, NC, USA), and PK data were analyzed using Phoenix WinNonlin software (Certara, Princeton, NJ, USA). Continuous variables were summarized with number of participants, mean, standard deviation, median, minimum and maximum, and confidence intervals (CI) for the mean. Categorical variables were summarized with frequency counts and percentages.

[2] = UP0030 phase 1 SAD/MAD study: safety and tolerability in healthy participants
Method: Part 1 (Fig. S1A) was a randomized, subject‐ and investigator‐blind, placebo‐controlled study in healthy older participants (HOP). Part 2 (Fig. S1B) was an open‐label, two‐way crossover study in HPs.
Part 1 included five cohorts (1, 2, 1b, 2b, and 3) and evaluated SADs (SAD: 90, 180, 360, and 450 mg) and MADs of UCB0599 (MAD: 180 and 360 mg/day). […] The first two doses were administered as a two‐way crossover (under fasting/fed or fed/fasting conditions), and the third dose was administered to both arms under fasted conditions with 200 mg of ITZ (once daily, days −3 to 2) to assess potential drug–drug interactions.
Eligible participants were aged ≥18 years (part 1, 55–75 years for HOP; part 2, <55 years) with a body mass index (BMI) of 18–32 kg/m^2 and a body weight of ≥50 kg. The study was conducted at a phase 1 unit in Germany.
The primary objective was to evaluate the safety and tolerability of UCB0599 after the administration of single and multiple doses in HOP. The secondary objectives are to evaluate the PK of UCB0599 and its desmethyl and N‐oxide metabolites after the administration of single and multiple doses in HOP and to evaluate the PK, safety, and tolerability of UCB0599 in HPs when given a single dose alone, with food or with ITZ.
Safety variables included the incidence of any treatment‐emergent adverse event (TEAE), changes in vital signs, laboratory assessments, 12‐lead electrocardiogram (ECG) and Holter ECG assessment, and the Columbia Suicide Severity Rating Scale (C‐SSRS). PK variables included maximum plasma concentration (C max), time of maximum concentration (t max), AUC (area under the plasma concentration–time curve) from time 0 to last quantifiable concentration (AUC0–t ), AUC from time 0 to infinity (AUC0–inf), apparent total body clearance, apparent volume of distribution, and apparent elimination half‐life (t 1/2).

[3] = UP0078 phase 1 food/ITZ study: safety and tolerability in healthy participants
Method: UP0078 was a phase 1, open‐label study to evaluate the potential effect of food on the bioavailability of UCB0599 and to test the potential effect of ITZ on the disposition of UCB0599 in HPs. A randomized, two‐way crossover design with a third fixed‐treatment period was used (Fig. S2).
Participants received a single 180 mg dose of UCB0599 on three separate occasions, with a washout period of ≥7 days between doses. The first dose was administered under fasted conditions, the second under fed conditions, and the third under fasted conditions co‐administered with ITZ (200 mg once daily, days 15–22).
The study was conducted at a phase 1 unit in the United Kingdom.
The primary objectives were to assess the potential effect of food intake (standard high‐fat, high‐calorie meal) on single‐dose PK of UCB0599 and to evaluate and compare the single‐dose PK of UCB0599 in the presence or absence of ITZ. The secondary and exploratory objectives were to evaluate the safety and tolerability of UCB0599 under fasted and fed conditions, and with/without concomitant administration of ITZ; to evaluate UCB0599 metabolite plasma PK in the presence or absence of ITZ; and to assess the potential effect of food intake on the single‐dose PK of UCB0599 metabolites.
Primary PK variables were AUC0–t , AUC0–inf, C max, and t max. Primary safety variables were the incidence of TEAEs and serious TEAEs. […]

[4] = human, plasma, oral, UP0030 single dose 90 mg
[5] = human, plasma, oral, UP0030 single dose 450 mg
[6] = UP0030, UCB0599 180 mg/day, n=17
[7] = UP0030 part 2, fasted UCB0599 360 mg, n=3
[8] = UP0030 part 2, fed UCB0599 360 mg, n=3

CCCC[C@H](Cc1c[nH]c2ccccc12)NC(=O)c1cnc(N2CCN(C)CC2)s1 [UCB0599]
Plasma steady‐state concentration achieved, on average ([1]; UP0030, 180 mg/day): ≤ 7 days
Tmax ([1]; human, plasma, oral, UP0030, UCB0599 180 mg/day, read-out: Median t max after multiple doses): 1.5 to 3 h
Tmax ([1]; human, plasma, oral, UP0030 single ascending doses 90–450 mg, read-out: t max range): 1.5 to 2 h
half-life ([1]; human, plasma, oral, UP0030 single ascending doses of UCB0599, across dose groups, read-out: Apparent elimination half‐life, GeoMean range): 10.6 to 13 h
AUC [1, 4]: 3.23 µg·h/mL
Cmax [1, 4]: 0.374 µg/mL
AUC [1, 5]: 17 µg·h/mL
Cmax [1, 5]: 1.81 µg/mL
Hypersensitivity reactions ([2]; UP0030): 2 n
Treatment‐related patterns for vital signs, ECG tracings, or laboratory findings ([2]; UP0030): no discernible UCB0599 treatment‐related patterns
TEAE Diarrhea ([2]; UP0030, UCB0599 90 mg, n=9): 0 n (%) […]
TEAE Drug hypersensitivity ([2]; UP0030, UCB0599 90 mg, n=9): 0 n (%) […]
TEAE Fatigue ([2]; UP0030, UCB0599 90 mg, n=9): 0 n (%) […]
TEAE Nasopharyngitis ([2]; UP0030, UCB0599 90 mg, n=9): 0 n (%) […]
TEAE Diarrhea ([2]; UP0030, UCB0599 180 mg, n=17): 0 n (%) […]
TEAE Drug hypersensitivity ([2]; UP0030, UCB0599 180 mg, n=17): 0 n (%) […]
TEAE Fatigue ([2]; UP0030, UCB0599 180 mg, n=17): 0 n (%) […]
TEAE Headache ([2]; UP0030, UCB0599 180 mg, n=17): 0 n (%) […]
TEAE Myalgia ([2]; UP0030, UCB0599 180 mg, n=17): 0 n (%) […]
TEAE Nasopharyngitis ([2]; UP0030, UCB0599 180 mg, n=17): 0 n (%) […]
TEAE Postlumbar puncture syndrome ([2]; UP0030, UCB0599 180 mg, n=17): 0 n (%) […]
TEAE Diarrhea [2, 6]: 0 n (%) […]
TEAE Fatigue [2, 6]: 0 n (%) […]
TEAE Postlumbar puncture syndrome [2, 6]: 0 n (%) […]
TEAE Presyncope [2, 6]: 0 n (%) […]
TEAE Drug hypersensitivity ([2]; UP0030, UCB0599 360 mg, n=18): 0 n (%) […]
TEAE Myalgia ([2]; UP0030, UCB0599 360 mg, n=18): 0 n (%) […]
TEAE Nasopharyngitis ([2]; UP0030, UCB0599 360 mg, n=18): 0 n (%) […]
TEAE Presyncope ([2]; UP0030, UCB0599 360 mg, n=18): 0 n (%) […]
TEAE Drug hypersensitivity ([2]; UP0030, UCB0599 450 mg, n=9): 0 n (%) […]
TEAE Fatigue ([2]; UP0030, UCB0599 450 mg, n=9): 0 n (%) […]
TEAE Myalgia ([2]; UP0030, UCB0599 450 mg, n=9): 0 n (%) […]
TEAE Presyncope ([2]; UP0030, UCB0599 450 mg, n=9): 0 n (%) […]
TEAE Puncture site pain ([2]; UP0030, UCB0599 450 mg, n=9): 0 n (%) […]
Time to resolution of HSRs ([2]; UP0030, after oral antihistamines): ≤ 3 days
Participants reporting serious TEAEs ([2]; UP0030 part 1): 4.4%
Deaths ([2]; UP0030 part 1, all UCB0599 N=45): 0 n (%) […]
Discontinuations due to drug hypersensitivity ([2]; UP0030 part 1, total UCB0599): 2 participants
Participants reporting TEAEs ([2]; UP0030 part 1, total UCB0599): 66.7%
Participants reporting severe TEAEs ([2]; UP0030 part 1, total UCB0599): 6.7%
Participants who discontinued due to TEAEs ([2]; UP0030 part 1, total UCB0599): 11.1%
Any TEAEs [2, 7]: 0 n (%) […]
Deaths [2, 7]: 0 n (%) […]
Discontinuations due to TEAEs [2, 7]: 0 n (%) […]
Drug‐related TEAEs [2, 7]: 0 n (%) […]
Serious TEAEs [2, 7]: 0 n (%) […]
Severe TEAEs [2, 7]: 0 n (%) […]
Participants reporting TEAEs ([2]; UP0030 part 2, fed UCB0599 360 mg): 33.3%
Deaths [2, 8]: 0 n (%) […]
Discontinuations due to TEAEs [2, 8]: 0 n (%) […]
Drug‐related TEAEs [2, 8]: 0 n (%) […]
Serious TEAEs [2, 8]: 0 n (%) […]
Severe TEAEs [2, 8]: 0 n (%) […]

CCC(C)n1ncn(-c2ccc(N3CCN(c4ccc(OCC5COC(Cn6cncn6)(c6ccc(Cl)cc6Cl)O5)cc4)CC3)cc2)c1=O (stereo not drawn) [ITZ, itraconazole, reference compound]
TEAE considered related to the substance [3]: 9.1%

Reference: paper PMC9804489, “Phase 1/1b Studies of UCB0599, an Oral Inhibitor of α‐Synuclein Misfolding, Including a Randomized Study in Parkinson's Disease” (Movement Disorders, 2022)
